Measurements published in patent publication US9822147B2, “Methods of treating ophthalmic diseases using NPR-B agonists” (priority 2009, dated 2017).
pEC50: −log10 of the molar value. Numbered stars: 1 amine (or outer) side, 2 acyl side, 3 side chain; on linkers, the order of the positions; unused ones are H or OH. Square brackets hold non-standard residues; d marks the D form. Peptide text beside a SMILES is read from it. * marks the point of attachment. Pro(4R-NH2) = N[C@H]1CN[C@H](C(=O)O)C1; dOrn(Me2) = CN(C)CCC[C@@H](N)C(=O)O; X2 = O=C([C@H]1CCCN([*:1])C1)[*:2]; Hyp = O=C(O)[C@@H]1C[C@@H](O)CN1; NHcycloheptyl = C1CCCC(N*)CC1; NMeL = CN[C@@H](CC(C)C)C(=O)O; dNle = CCCC[C@@H](N)C(=O)O; Octanoyl = CCCCCCCC(=O)*; Api = NC1(C(=O)O)CCNCC1

Molecular target: T1, NPR-B (Homo sapiens, UniProt P20594)
T1 construct: a functional assay using endogenously NPR-B expressing GTM-3 cells; endogenous in cells; host or cells: GTM-3 (human glaucoma trabecular meshwork cells)
T1 sequence (P20594 23-1047): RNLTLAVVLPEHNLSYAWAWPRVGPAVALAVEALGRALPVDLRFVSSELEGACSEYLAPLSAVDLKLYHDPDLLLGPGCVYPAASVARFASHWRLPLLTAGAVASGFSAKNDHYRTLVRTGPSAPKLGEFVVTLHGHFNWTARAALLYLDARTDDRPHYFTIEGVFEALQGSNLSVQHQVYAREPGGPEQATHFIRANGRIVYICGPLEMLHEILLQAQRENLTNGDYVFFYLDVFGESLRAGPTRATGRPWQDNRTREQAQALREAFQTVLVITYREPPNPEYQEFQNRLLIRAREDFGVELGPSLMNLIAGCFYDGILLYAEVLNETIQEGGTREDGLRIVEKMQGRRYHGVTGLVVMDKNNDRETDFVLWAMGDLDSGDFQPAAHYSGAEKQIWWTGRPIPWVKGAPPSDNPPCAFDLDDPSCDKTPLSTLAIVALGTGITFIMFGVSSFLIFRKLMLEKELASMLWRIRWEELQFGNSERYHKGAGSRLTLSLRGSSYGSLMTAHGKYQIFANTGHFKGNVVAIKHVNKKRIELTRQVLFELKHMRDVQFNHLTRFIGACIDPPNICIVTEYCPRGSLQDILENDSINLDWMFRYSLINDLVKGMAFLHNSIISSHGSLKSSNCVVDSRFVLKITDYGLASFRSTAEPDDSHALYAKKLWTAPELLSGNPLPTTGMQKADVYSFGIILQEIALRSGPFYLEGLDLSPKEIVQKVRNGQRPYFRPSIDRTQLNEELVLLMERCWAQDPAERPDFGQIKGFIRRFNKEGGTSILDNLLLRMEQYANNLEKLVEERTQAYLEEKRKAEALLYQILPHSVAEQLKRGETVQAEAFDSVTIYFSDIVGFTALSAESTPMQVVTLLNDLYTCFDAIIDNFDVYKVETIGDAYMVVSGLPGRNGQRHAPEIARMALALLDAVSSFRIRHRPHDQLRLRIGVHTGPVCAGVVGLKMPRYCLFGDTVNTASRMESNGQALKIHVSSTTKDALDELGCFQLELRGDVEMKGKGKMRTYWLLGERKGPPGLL
Test: NPR-B induced production of cyclic GMP in human glaucoma trabecular meshwork cells (GTM-3)
Assay type: cell-based
Settings: group by EC50 and Emax (CNP = 100%); Table 4; read-out: Activity (group), NPR-B activation assayed with GTM-3 cells

Structure (SMILES) | pEC50
CCCCCCCC(=O)N1CCC[C@H](C(=O)N[C@@H](Cc2ccccc2)C(=O)N[C@H](CC(C)C)C(=O)N[C@@H](CC(C)C)C(=O)N2C[C@H](N)C[C@H]2C(=O)N(C)[C@@H](CC(C)C)C(=O)N[C@H](C(=O)N[C@@H](CCCNC(=N)N)C(=O)N[C@H](C(N)=O)[C@@H](C)CC)C(C)C)C1 [JAL-1401, Occ-Sni-Phe-leu-Leu-Tap-Nml-Val-Arg-Ile-NH2] (Octanoyl-[X2]F[dL]L[Pro(4R-NH2)][NMeL]VRI-NH2) | > 6.00
CCCCCCCC(=O)N[C@H](C)C(=O)N[C@@H](Cc1ccccc1)C(=O)N[C@H](CCCNC(=N)N)C(=O)N[C@@H](CC(C)C)C(=O)N1C[C@H](O)C[C@H]1C(=O)N[C@@H](CC(C)(C)C)C(=O)N[C@@H](CC(=O)O)C(=O)N[C@@H](CCCNC(=N)N)C(=O)N[C@H](C(N)=O)[C@@H](C)CC [JAL-1225, Occ-ala-Phe-arg-Leu-Hyp-Npg-Asp-Arg-Ile-NH2] (HELM PEPTIDE1{[CCCCCCCC(=O)[*:2]].[dA].F.[dR].L.[Hyp].[CC(C)(C)C[C@H](N[*:1])C(=O)[*:2]].D.R.I.[am]}$$$$V2.0) | > 6.00
CCCCCCCC(=O)N[C@@]1(C)CCN([C@@H](Cc2ccccc2)C(=O)N[C@H](CC(C)C)C(=O)N[C@@H](CC(C)C)C(=O)N2C[C@H](O)C[C@H]2C(=O)N(C)[C@@H](CC(C)C)C(=O)N[C@@H](CC(=O)O)C(=O)N[C@@H](CCCNC(=N)N)C(=O)N[C@H](C(N)=O)[C@@H](C)CC)C1=O [JAL-1774, (AR-314-102)-leu-Leu-Hyp-Nml-Asp-Arg-Ile-NH2] | > 6.00
CCCCCCCC(=O)N[C@H](C)C(=O)N[C@@H](Cc1ccccc1)C(=O)N[C@H](CCCNC(=N)N)C(=O)N[C@@H](CC(C)C)C(=O)N1C[C@H](O)C[C@H]1C(=O)N(C)[C@@H](CC(C)C)C(=O)N[C@@H](CC(=O)O)C(=O)N[C@@H](CCCNC(=N)N)C(=O)N[C@H](C(N)=O)C(C)(C)C [JAL-1305, Occ-ala-Phe-arg-Leu-Hyp-Nml-Asp-Arg-Tbg-NH2] (HELM PEPTIDE1{[CCCCCCCC(=O)[*:2]].[dA].F.[dR].L.[Hyp].[meL].D.R.[CC(C)(C)[C@H](N[*:1])C(=O)[*:2]].[am]}$$$$V2.0) | > 6.00
CCCCCCCC(=O)N1CCC[C@H](C(=O)N[C@@H](Cc2ccccc2)C(=O)N[C@H](CCCC)C(=O)N[C@@H](CC(C)C)C(=O)N2C[C@H](O)C[C@H]2C(=O)N[C@@H](CC(C)C)C(=O)N[C@@H](CC(=O)O)C(=O)N[C@@H](CCCNC(=N)N)C(=O)N[C@H](C(N)=O)[C@@H](C)CC)C1 [JAL-1024, Occ-Sni-Phe-nle-Leu-Hyp-Leu-Asp-Arg-Ile-NH2] (Octanoyl-[X2]F[dNle]L[Hyp]LDRI-NH2) | > 6.00
CCCCCCCC(=O)N1CCC[C@H](C(=O)N[C@@H](Cc2ccccc2)C(=O)N[C@H](CC(C)C)C(=O)N[C@@H](CCCC)C(=O)N2C[C@H](O)C[C@H]2C(=O)N(C)[C@@H](CC(C)C)C(=O)N[C@@H](CC(=O)O)C(=O)N[C@@H](CCCNC(=N)N)C(=O)N[C@H](C(N)=O)[C@@H](C)CC)C1 [JAL-1624, Occ-Sni-Phe-leu-Nle-Hyp-Nml-Asp-Arg-Ile-NH2] (HELM PEPTIDE1{[CCCCCCCC(=O)[*:2]].[O=C([C@H]1CCCN([*:1])C1)[*:2]].F.[dL].[Nle].[Hyp].[meL].D.R.I.[am]}$$$$V2.0) | > 6.00
CCCCCCCC(=O)N1CCC[C@H](C(=O)N[C@@H](Cc2ccccc2)C(=O)N[C@H](CC(C)C)C(=O)N[C@@H](CC(C)C)C(=O)N2C[C@H](O)C[C@H]2C(=O)N(C)[C@@H](CC(C)C)C(=O)N[C@@H](CC(=O)O)C(=O)N[C@@H](CCCNC(=N)N)C(=O)N(C)[C@H](C(N)=O)[C@@H](C)CC)C1 [JAL-1569, Occ-Sni-Phe-leu-Leu-Hyp-Nml-Asp-Arg-Nmi-NH2] (HELM PEPTIDE1{[CCCCCCCC(=O)[*:2]].[O=C([C@H]1CCCN([*:1])C1)[*:2]].F.[dL].L.[Hyp].[meL].D.R.[meI].[am]}$$$$V2.0) | > 6.00
CCCCCCCCN1CCC[C@H](C(=O)N[C@@H](Cc2ccccc2)C(=O)N[C@H](CCCNC(=N)N)C(=O)N[C@@H](CC(C)C)C(=O)N2C[C@H](O)C[C@H]2C(=O)N(C)[C@@H](CC(C)C)C(=O)N[C@@H](CC(=O)O)C(=O)N[C@@H](CCCNC(=N)N)C(=O)N[C@H](C(N)=O)[C@@H](C)CC)C1 [JAL-1297, Oct-Sni-Phe-arg-Leu-Hyp-Nml-Asp-Arg-Ile-NH2] (HELM PEPTIDE1{[CCCCCCCCN1CCC[C@H](C(=O)[*:2])C1].F.[dR].L.[Hyp].[meL].D.R.I.[am]}$$$$V2.0) | > 6.00
CCCCCCCC(=O)N[C@H](C)C(=O)N[C@@H](Cc1ccccc1)C(=O)NC(C(=O)N[C@@H](CC(C)C)C(=O)N1C[C@H](O)C[C@H]1C(=O)N(C)[C@@H](CC(C)C)C(=O)N[C@@H](CC(=O)O)C(=O)N[C@@H](CCCNC(=N)N)C(=O)N[C@H](C(N)=O)[C@@H](C)CC)C1CCCNC1 (stereo partly drawn) [JAL-1336, Occ-ala-Phe-Fhy-Leu-Hyp-Nml-Asp-Arg-Ile-NH2] (HELM PEPTIDE1{[CCCCCCCC(=O)[*:2]].[dA].F.[O=C(C(N[*:1])C1CCCNC1)[*:2]].L.[Hyp].[meL].D.R.I.[am]}$$$$V2.0) | > 6.00
CCCCCCCC(=O)N[C@H]1CCN([C@@H](Cc2ccccc2)C(=O)N[C@H](CC(C)C)C(=O)N[C@@H](CC(C)C)C(=O)N2C[C@H](O)C[C@H]2C(=O)N(C)[C@@H](CC(C)C)C(=O)N[C@@H](CC(=O)O)C(=O)N[C@@H](CCCNC(=N)N)C(=O)N[C@H](C(N)=O)[C@@H](C)CC)C1=O [JAL-1671, Occ-(AFL)-leu-Leu-Hyp-Nml-Asp-Arg-Ile-NH2] | > 6.00

More lines, now with the values ahead:

pEC50 | Structure (SMILES)
> 6.00 | CCCCCCCC(=O)N1CCC[C@H](C(=O)N[C@@H](Cc2ccccc2)C(=O)NC2(C(=O)N[C@@H](CC(C)C)C(=O)N3C[C@H](N)C[C@H]3C(=O)N(C)[C@@H](CC(C)C)C(=O)N[C@@H](CC(=O)O)C(=O)N3CCC[C@H]3C(=O)NC3CCCCCC3)CCNCC2)C1 [JAL-1602, Occ-Sni-Phe-Apc-Leu-Tap-Nml-Asp-Pro-Che] (Octanoyl-[X2]F[Api]L[Pro(4R-NH2)][NMeL]DP-NHcycloheptyl)
> 6.00 | CCCCCCCC(=O)N1CCC[C@H](C(=O)N[C@@H](Cc2ccccc2)C(=O)N[C@H](CCCN(C)C)C(=O)N[C@@H](CC(C)C)C(=O)N2C[C@H](O)C[C@H]2C(=O)N(C)[C@@H](CC(C)C)C(=O)N[C@@H](CC(=O)O)C(=O)N[C@@H](CCCNC(=N)N)C(=O)NC2CCCCCC2)C1 [JAL-1776, Occ-Sni-Phe-orn(Me2)-Leu-Hyp-Nml-Asp-Arg-Che] (Octanoyl-[X2]F[dOrn(Me2)]L[Hyp][NMeL]DR-NHcycloheptyl)
> 6.00 | CCCCCCCC(=O)N1CCC[C@H](C(=O)N[C@@H](Cc2ccccc2)C(=O)NC2(C(=O)N[C@@H](CC(C)C)C(=O)N3C[C@H](N)C[C@H]3C(=O)N(C)[C@@H](CC(C)C)C(=O)N[C@@H](CC(=O)O)C(=O)N3CCC[C@H]3C(=O)N[C@H](C(N)=O)[C@@H](C)CC)CCNCC2)C1 [JAL-1561, Occ-Sni-Phe-Apc-Leu-Tap-Nml-Asp-Pro-Ile-NH2] (Octanoyl-[X2]F[Api]L[Pro(4R-NH2)][NMeL]DPI-NH2)
> 6.00 | CCCCCCCC(=O)N1CCC[C@H](C(=O)N[C@@H](Cc2ccccc2)C(=O)N[C@H](CC(C)C)C(=O)N[C@@H](CC(C)C)C(=O)N2C[C@H](N)C[C@H]2C(=O)N(C)[C@@H](CC(C)C)C(=O)N[C@@H](CC(=O)O)C(=O)N[C@@H](CCCNC(=N)N)C(=O)NC2CCCCCC2)C1 [JAL-1682, Occ-Sni-Phe-leu-Leu-Tap-Nml-Asp-Arg-Che] (Octanoyl-[X2]F[dL]L[Pro(4R-NH2)][NMeL]DR-NHcycloheptyl)
